We go through five compounds from US6316413A (Fournier Industrie et Sante, priority 1996, dated 2001).

Experiment [1] deals with T1, human B2 receptor cloned and transfected in a stable manner into a CHO cell line (Homo sapiens, UniProt P30411).
T1 construct: expressed in transfected cells
T1 sequence (P30411 1-391): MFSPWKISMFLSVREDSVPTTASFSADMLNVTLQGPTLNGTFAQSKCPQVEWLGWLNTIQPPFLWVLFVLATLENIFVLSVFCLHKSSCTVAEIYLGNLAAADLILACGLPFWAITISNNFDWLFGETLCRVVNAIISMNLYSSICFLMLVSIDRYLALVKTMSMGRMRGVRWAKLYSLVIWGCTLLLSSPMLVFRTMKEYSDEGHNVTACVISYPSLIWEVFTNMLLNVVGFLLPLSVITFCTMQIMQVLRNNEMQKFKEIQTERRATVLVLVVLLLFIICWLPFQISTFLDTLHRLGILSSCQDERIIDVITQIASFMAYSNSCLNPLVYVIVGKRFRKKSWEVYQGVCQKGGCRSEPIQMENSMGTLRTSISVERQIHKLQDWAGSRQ
The experiment in a line: Binding to the cloned human bradykinin B2 receptor (CHO cell line). The conditions noted are these: affinity for cloned human B2 receptor stably transfected into CHO cells.

Experiment [2] addresses T2, bradykinin B2 receptor (segments of human umbilical vein) (Homo sapiens, UniProt P30411).
T2 construct: determination of a pD2 value on segments of human umbilical vein; from tissue; host or cells: segments of human umbilical vein
T2 sequence (P30411 1-391): T1 sequence (P30411 1-391)
The experiment is described as follows: B2 receptor-dependent contraction of human umbilical vein segments. It is filed as cell-based. Particulars: calculated from concentrations causing B2 receptor-dependent contraction of human umbilical vein; read-out: pD2 (converted).

pKi: −log10 of the molar value.

For the compound `N=C(N)NCCC[C@@H](N)C(=O)N[C@@H](CCCNC(=N)N)C(=O)N1CCC[C@H]1C(=O)N1C[C@H](O)C[C@H]1C(=O)NCC(=O)N[C@@H](Cc1cccs1)C(=O)N[C@@H](CO)C(=O)N[C@@H]1CSc2ccccc2N(CC(=O)N[C@@H](CCCNC(=N)N)C(=O)O)C1=O` [Ex. 1, H-D-Arg-Arg-Pro-4Hyp-Gly-Thi-Ser-DBT(H)-Arg-OH], the Ki (usually a dissociation constant, usually derived from enzyme kinetics or from competition with a known ligand) in experiment [1] was 0.7 nM. Moreover, the EC50 in experiment [2] is 200 nM.

`N=C(N)NCCC[C@H](NC(=O)CN1C(=O)[C@H](NC(=O)[C@H](CO)NC(=O)[C@H](Cc2cccs2)NC(=O)CNC(=O)[C@@H]2C[C@@H](O)CN2C(=O)[C@@H]2CCCN2C(=O)[C@H](CCCNC(=N)N)NC(=O)[C@@H](N)CCCCN)CSc2ccccc21)C(=O)O` [Ex. 2, H-Lys-Arg-Pro-4Hyp-Gly-Thi-Ser-DBT(H)-Arg-OH] displayed a Ki in experiment [1] of 0.07 nM. Besides, in experiment [2], the EC50 is 79.4 nM. As for `N=C(N)NCCC[C@H](NC(=O)CN1C(=O)[C@H](NC(=O)[C@H](CO)NC(=O)[C@H](Cc2ccccc2)NC(=O)CNC(=O)[C@@H]2CCCN2C(=O)[C@@H]2CCCN2C(=O)[C@@H](N)CCCNC(=N)N)CSc2ccccc21)C(=O)O` [Ex. 3, H-Arg-Pro-Pro-Gly-Phe-Ser-DBT(M)-Arg-OH], in experiment [1], the pKi (in general, −log10 of the Ki, conventionally taken in molar units) is 7.89. `N=C(N)NCCC[C@@H](N)C(=O)N[C@@H](CCCNC(=N)N)C(=O)N1CCC[C@H]1C(=O)N1C[C@H](O)C[C@H]1C(=O)NCC(=O)N[C@@H](Cc1cccs1)C(=O)N[C@@H](CO)C(=O)N[C@@H]1COc2ccccc2N(CC(=O)N[C@@H](CCCNC(=N)N)C(=O)O)C1=O` [Ex. 4, H-D-Arg-Arg-Pro-4Hyp-Gly-Thi-Ser-DBO(H)-Arg-OH] had a Ki in experiment [1] of 2.5 nM. Besides, the EC50 in experiment [2] was 7940 nM. For `Cc1ccc2c(c1)SC[C@@H](NC(=O)[C@H](CO)NC(=O)[C@H](Cc1cccs1)NC(=O)CNC(=O)[C@@H]1C[C@@H](O)CN1C(=O)[C@@H]1CCCN1C(=O)[C@H](CCCNC(=N)N)NC(=O)[C@H](N)CCCNC(=N)N)C(=O)N2CC(=O)N[C@@H](CCCNC(=N)N)C(=O)O` [Ex. 5, H-D-Arg-Arg-Pro-4Hyp-Gly-Thi-Ser-DBT(CH3)-Arg-OH], in that order: 6 nM and 56.2 nM.
